Holding throughout (type): cell-based
The target of assay [1] is T1, CYP24 (Homo sapiens, UniProt Q07973).
T1 construct: expressed in transfected cells
T1 sequence (Q07973 36-514): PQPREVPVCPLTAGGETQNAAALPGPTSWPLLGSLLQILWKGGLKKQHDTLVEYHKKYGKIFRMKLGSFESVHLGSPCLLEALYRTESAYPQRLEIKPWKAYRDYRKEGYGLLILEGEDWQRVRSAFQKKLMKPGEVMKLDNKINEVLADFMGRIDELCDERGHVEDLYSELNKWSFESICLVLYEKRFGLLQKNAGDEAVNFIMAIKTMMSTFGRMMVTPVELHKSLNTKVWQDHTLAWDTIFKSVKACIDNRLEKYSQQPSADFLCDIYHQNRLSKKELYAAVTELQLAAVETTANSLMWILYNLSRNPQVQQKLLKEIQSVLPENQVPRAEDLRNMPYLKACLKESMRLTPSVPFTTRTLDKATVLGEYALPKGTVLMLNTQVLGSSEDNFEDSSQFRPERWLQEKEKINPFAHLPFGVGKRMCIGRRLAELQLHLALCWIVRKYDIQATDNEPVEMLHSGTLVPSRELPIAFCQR
Put plainly: CYP24 enzyme assay (stable cell line V79-CYP24 cells). The settings on record: [3H-1β]-1α,25(OH)2D3 20 nM, 2 hours. On the procedure: 1. Preparation of Cell Suspension • On the day of the assay, washed the monolayer of V79-CYP24 cells once with 1×PBS buffer and then trypsinize for 5 min at room temperature (approx. 22° C.). Added 1×PBS. Collected cells into tube, centrifuged cells (500×g, 5 min) and resuspended in DMEM+1% BSA media.
2. Cell Plating • Added 150 μl of cell suspension to appropriately labelled wells of a 48-well plate. Incubated plate for 30 minutes at 37° C. in a humidified atmosphere containing 5% CO2 for adherence of cells to wells.
3. Compound Addition • Added 25 μl of inhibitor (10^−6 to 10^−9 M) and then after 10 min added 25 μl of substrate [^3H-1β]-1α,25(OH)2D3 (20 nM) for 2 hours at 37° C. in a humidified atmosphere containing 5% CO2. Both inhibitor and substrate were prepared in DMEM with 1% BSA media in the absence and presence of 100 μM DPPD.
4. Lipid Extraction and Counting • Added 500 μL of methanol to stop the reaction. Transferred to tube. Added 250 μl of dichloromethane and vortexed. Added 250 μl of dichloromethane and 250 μl of saturated KCL and vortexed. Centrifuged at 4000 rpm for 5 min. Triplicate 100 μl aliquots of aqueous fraction were mixed with 600 μl of scintillation fluid and the radioactivity was measured using a scintillation counter. All values were normalized for background. (iii) Results.

Assay [2] has as its target T1, CYP24. As to the kind of experiment: CYP24 enzyme assay (induced HPK1A-ras cells). The settings on record: HPK1A-ras cells induced with 1,25(OH)2D3; [3H]-1,25(OH)2D3 substrate, 2 hour. On the procedure:
1.25(OH)2D3 10^−5 M (Sigma, St. Louis, Mo.);
Preparation of 10^−5 M working solution is as follows:
Dissolve 1 mg of 1,25(OH)2D3 into 480 μl of isopropanol to make 5×10^−3 M stock solution. Store at −70° C. until needed. Aliquot 1 μl of 1.25(OH)2D3 5×10^−3 M stock solution to 499 μl of isopropanol to make 1.25(OH)2D3 10^−5 working solution. Store at −20° C. until needed. […] Induction of HPKIA-ras cells (The day before assay) • When the HPK1A-ras cells were 80-90% confluent, added 1 μL 10^−5 M 1.25(OH)2D3 to 1 mL medium in the plate (final concentration is 10^−8 M). • 2. Preparation of cell suspension • After 18 to 20 hours induction, removed the medium and washed the cell twice with PBS. Then tripsinized the cells from plate, centrifuged (2,000 rpm, 5 min) and suspended cells pellet in DMEM medium+1% BSA. • Counted the cells and adjusted cells density to 250,000/150 μL, added 150 μL cell suspension to each well in 48-well plate (including 3 wells as a no cell control, and 3 well cells without drug or inhibitor as controls). • 3. […] Kept the plate in 37° C. for 10 min. • 4. Preparation of substrate • For each ml required, added 972 μl of DMEM+1% BSA medium, 20 μl of 3H-1,25(OH)2D3, and 8 μl of 100 nM DPPD to a tube and vortexed. • 5. Incubation • Added 25 μL substrate to each well, incubated the plate at 37° C. for 2 hour. • Added 25 μL substrate to counting plate (2 well) as a total count. • 6. Lipid Extraction and Counting • Added 500 μL methanol to each well to stop the reaction, transferred them to tube. • Added 250 μL dichloromethane and vortex. • Added 250 μL dichloromethane and […] saturated KCI, and vortex. • Centrifuged at 4000 rpm for 5 min. • Transferred 100 μL of aqueous phase (upper phase) to counting plastic counting plate. Added 600 μL of scintillation fluid to each well. Counted the plate in scintillation counter. • 7. Calculation Enzyme Activity • CPM of cell control after subtraction of CPM of non-cell control (NCC) was as 100% enzyme activity.
• Dilution of test compounds • Stock 10^−3 M

The next assay has as its system MCF-7 cells. As to the kind of experiment: [3H]-thymidine proliferation assay with MCF-7 cells. The settings on record: together with calcitriol, three days, [3H]-thymidine 6 h. On the procedure: 1. Preparation of Cell Suspension • When MCF-7 cells were 70-80% confluent, aspirated growth media. Washed the cells with 1×PBS. Trypsinized with trypsin-EDTA from the plate, collected cells from the tissue culture flask, centrifuged (500×g, 5 min) and resuspended in growth media.
2. Cell Plating. • Counted the cells and adjusted the cell density to 25,000/ml. Added 200 μl per well in a 96 well plate. Incubated plate for 24 h at 37° C. in a humidified atmosphere plus 5% CO2. Aspirated used media and replaced with 150 μl per well with proliferation media.
3. Substrate Addition. • Added 25 μl of 1α,25(OH)2D3 (final concentration 10^−6 M, 10^−7 M, 10^−8 M, 10^−9 M, 10^−10 M, 10^−11 M) into each designated well. Added 25 μl of substrate (final concentration 10^−7 M, 5×10^−8 M, 10^−8 M or 10^−9 M) into each designated well. Incubated plates for 3 days at 37° C. in a humidified atmosphere plus 5% CO2.
4. ^3H-Thymidine incorporation. • Added ^3H-thymidine at 0.02 μCi per well and incubated at 37° C. in a humidified atmosphere plus 5% CO2 for 6 h.
5. Plate Harvesting. • Aspirated all media and washed cells with 1×PBS. Trypsinized cells for 30 min at 37° C. in a humidified atmosphere plus 5% CO2. Harvested cells onto a 96 well filter plate (Millipore) using a Tomtec Cell Harvestor, according to manufacturers instructions.
6. Scintillation Counting. • Added 25 μl of scintillation fluid per well. Counted the plate using a scintillation counter.

Assay [3] deals with T1, CYP24. Put plainly: In vitro test of ability to inhibit specifically CYP24 (standard protocol). The settings on record: ketoconazole as control standard.

This is an account of results in US7973024B2, “24-sulfoximine vitamin D3 compounds” (Cyctochroma Inc., priority 2002, dated 2011).

Regarding `C=C1/C(=C\C=C2/CCC[C@]3(C)[C@@H]([C@H](C)CCS(=N)(=O)c4ccccc4)CC[C@@H]23)C[C@@H](O)C[C@@H]1O` (single isomer, unassigned) [I(a)], the 50% inhibitory concentration (IC50) at CYP24 [1] was determined as 4 nM; on CYP24 [2] it was 5 nM. The “inhibition of proliferation of MCF-7 cells” value (“inhibition … of MCF-7 cells” below) with MCF-7 cells is “act to inhibit the proliferation”.

On to `C=C1/C(=C\C=C2/CCC[C@]3(C)[C@@H]([C@H](C)CCS(=O)(=NC)c4ccccc4)CC[C@@H]23)C[C@@H](O)C[C@@H]1O` (single isomer, unassigned) [I(e)], for which the values for the IC50 at CYP24 [1] and at CYP24 [2] were 29 nM and 66 nM, respectively. The “inhibition … of MCF-7 cells” value in the assay with MCF-7 cells is “act to inhibit the proliferation”. For the same molecule, at CYP24 [3], the “selective inhibition of CYP24” value is recorded as “selectively inhibit”.

Consider `C=C1/C(=C\C=C2/CCC[C@]3(C)[C@@H]([C@H](C)CCS(=O)(=NC)c4ccccc4)CC[C@@H]23)C[C@@H](O)C[C@@H]1O` (single isomer, unassigned) [I(g)], for which the 50% inhibitory concentration (IC50) was 26 nM at CYP24 [1] and 20 nM at CYP24 [2]. Besides, the “inhibition … of MCF-7 cells” value in the assay on MCF-7 cells is given as “act to inhibit the proliferation”. In addition, the “selective inhibition of CYP24” value on CYP24 [3] was “selectively inhibit”.

Consider `C[C@H](CCS(=N)(=O)c1ccccc1)[C@H]1CC[C@H]2/C(=C/C=C3C[C@@H](O)C[C@H](O)C3)CCC[C@]12C` (single isomer, unassigned) [I(i), 24-Phenyl Sulfoximine 19-Nor-Vitamin-D3], for which the IC50 against CYP24 [1] amounted to 8.5 nM. The “inhibition … of MCF-7 cells” value in the assay with MCF-7 cells is “act to inhibit the proliferation”. The “selective inhibition of CYP24” value on CYP24 [3] is “selectively inhibit”.
